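Assay format: 96-well plates, 48-hour exposure. Abbreviation: GI50, concentration required for 50% inhibition of growth.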 Calls of active or inactive are those of the source. No stated cut-off is given here; in the data, active = GI50 up to about 1.1 µM and inactive = higher. Some results are limits rather than exact numbers.

One test deals with BT-549. Briefly: NCI-60 cell line screen, 48 h.
A further test concerns T47D. Kind of test: NCI-60 cell line screen, 48 h.

For `Fc1ccc(C(OCCN2CC3CC2CN3CCCc2ccccc2)c2ccc(F)cc2)cc1` (centres undefined), the values for the GI50 with BT-549 and with T47D were 11.8 µM (inactive) and 2.07 µM (inactive), respectively.

Regarding `O=c1cc(N2CCCC2)[nH]c(=O)n1-c1ccc(Cl)cc1`, the GI50 with BT-549 and in the test with T47D was > 100 µM (inactive) each time.

As to `CCn1c(CCCc2nc3c(=O)n(C)c(=O)n(C)c3[nH]2)nc2c1c(=O)n(C)c(=O)n2C`, the GI50 in the test on BT-549 and with T47D was > 100 µM (inactive) each time.

Take `C=C1C(=O)[C@@]23CC[C@@H]4[C@@]5(C)CCC[C@@]4(OC5=O)[C@@]2(C)CC[C@@H]1C3`: the GI50 with BT-549 was 1.3 µM (inactive); in the test on T47D it was 4.89 µM (inactive). Consider `C/C(=N\Nc1cc(CN2CCCC2)c(-c2ccc(Cl)cc2)nn1)C(=O)O`, for which the GI50 in the test with BT-549 and with T47D was > 100 µM (inactive) each time. For `CSc1nc2c(c(=O)[nH]1)N=C(c1ccc(Cl)cc1)CC(c1ccccc1)N2` (centres undefined), the GI50 with BT-549 was 19.7 µM (inactive). Take `CCN1CC2=C(N=c3s/c(=C\c4ccc(Cl)cc4)c(=O)n3C2c2ccc(Cl)cc2)/C(=C/c2ccc(Cl)cc2)C1` (centres undefined): in the test with BT-549, the GI50 was 26.4 µM (inactive). Same read-out and setting: for `CC[C@]12C=CCN3CCC4(c5cc(/N=N/c6ccccc6)c(OC)cc5N(C)[C@H]4[C@@](O)(C(=O)OC)[C@@H]1OC(C)=O)[C@@H]32` (some centres undefined) the value was 17.1 µM (inactive).

On to `O=c1ccc(=O)c2c1c1[nH]c3ccccc3c1c1c(=O)c3ccccc3c(=O)c21`, for which, in the test with T47D, the GI50 is > 10 µM (inactive).

As for `CC1(C)OC2[C@@H](CO[C@@]3([C@@H](O)CCO)OC(C)(C)O[C@@H]23)O1` (some centres undefined), the GI50 with BT-549 and with T47D was > 100 µM (inactive) in each case. As for `O=C(O)c1cc(/N=C/c2ccccc2O)cc(C(=O)O)c1`, the GI50 in the test with BT-549 and in the test on T47D was > 100 µM (inactive) throughout. Take `COC(=O)C1(Cc2ccccc2)Cc2ccccc2C1O` (centres undefined): the GI50 in the test on BT-549 is > 100 µM (inactive); in the test with T47D, 43.3 µM (inactive). For the molecule `c1ccc(COC[C@H]2C3OCC([C@H](OCc4ccccc4)[C@H]3OCc3ccccc3)N2Cc2ccccc2)cc1` (some centres undefined), the results for the GI50 in the test on BT-549 and with T47D were > 53.3 µM (inactive) and 13.6 µM (inactive), respectively. With `COc1cc2c(cc1C)NC(=O)/C2=C\c1ccncc1`, the GI50 in the test with T47D is 3.81 µM (inactive). With `O=C(O)C1C2CCC(O2)C1C(=O)Nc1cccc2cccnc12` (centres undefined), the GI50 with BT-549 and with T47D was > 100 µM (inactive) throughout. As to `COc1ccccc1OC(=O)/C=C/c1ccccc1`, the GI50 in the test on BT-549 and with T47D was > 100 µM (inactive) each time.

With `CC(C)(C)OC(=O)NCCNCCNc1ccccc1`, the GI50 is > 100 µM (inactive) in the test on BT-549 and 85.5 µM (inactive) in the test with T47D. For the molecule `CCCCCCCCCCCCCCCCCCNc1ccn(C2OC(CO)C(OP(=O)(O)OCC(O)COP(=O)(O)OCC3OC(n4cc(F)c(NCCCCCCCCCCCCCCCCCC)nc4=O)CC3O)C2O)c(=O)n1` (centres undefined), the GI50 with BT-549 and with T47D was > 50 µM (inactive) each time.

For the molecule `C/C=C/[C@@]1(OC(=O)c2ccccc2)C[C@@H]2CCCC[C@@H]21`, the GI50 was 14.9 µM (inactive) in the test with BT-549 and 18.6 µM (inactive) in the test with T47D. As to `Cn1c2ccccc2c(=O)c2cccc(C(=O)NCC(=O)O)c21`, the GI50 with BT-549 and with T47D was > 100 µM (inactive) in each case. Consider `O=C(/C=C/c1ccccc1)CCN1CCCCC1`, for which the GI50 with BT-549 was 47.1 µM (inactive); in the test on T47D, 35.5 µM (inactive). On to `COC/C=C\[C@]1(O)CCCC[C@@H]1CC(OC)OC`, for which, in the test with T47D, the GI50 was > 100 µM (inactive).

As to `CC1=NN(c2cccc(Cl)c2)C2(SCC(=O)N2c2nc3ccccc3s2)/C1=C\c1ccc(N(C)C)cc1` (centres undefined), in the test on T47D, the GI50 was 34.8 µM (inactive). `NNC(=O)CCC(NS(=O)(=O)c1ccc(Cl)cc1)C(=O)NN` (centres undefined): the GI50 with BT-549 and with T47D was > 100 µM (inactive) each time. On to `CCOC(=O)C1C(c2ccco2)C2(C#N)C(=N)OC1(C)C2(C#N)C#N` (centres undefined), for which the GI50 in the test with T47D was > 100 µM (inactive). Turning to `O=c1c2cnccc2cc2c3ccccc3ccn12`, the GI50 is 65.6 µM (inactive) in the test with BT-549 and 32.4 µM (inactive) in the test on T47D. In the case of `COc1nc2ncc([C@@H](O)[C@H](O)CO)nc2c(=O)n1C`, the GI50 in the test on BT-549 and in the test on T47D was > 100 µM (inactive) each time. On to `COc1ccc(/N=N/C(=N/NC(=O)c2ccccc2)c2ccc(N(CCC#N)CCC#N)cc2C)cc1`, for which the GI50 in the test with BT-549 is 52.4 µM (inactive); in the test on T47D, 53.7 µM (inactive). Regarding `Cc1ccc2[nH]c3c(c2c1)CCC/C3=N/N=C(N)N`, the GI50 in the test on BT-549 is 14.5 µM (inactive).

Turning to `COc1c(-c2ccc(F)cc2)oc2cc(O)cc(O)c2c1=O`, the GI50 with T47D was 18.8 µM (inactive). Turning to `O=C(OCCN=c1c2ccccc2ccc2ccccc12)c1ccc([N+](=O)[O-])cc1`, the GI50 in the test on BT-549 and in the test with T47D was > 100 µM (inactive) each time.

As to `Cc1ccc2nc(N/N=C/c3sccc3C)cc(C)c2c1`, the GI50 in the test on BT-549 and in the test with T47D was > 100 µM (inactive) throughout.

As to `CSCC[C@H](NC(=O)[C@H](CC(C)C)NC(=O)[C@@H](Cc1ccccc1)NC(=O)CNC(=O)[C@@H](NC(=O)[C@H](C)NC(=O)[C@H](Cc1c[nH]c2ccccc12)NC(=O)[C@H](CCC(N)=O)NC(=O)[C@H](N)CC(N)=O)C(C)C)C(N)=O`, the GI50 in the test with T47D is > 12.5 µM (inactive).

In the case of `Cn1cccc1-c1ccc(-c2ccc(CO)[se]2)[se]1`, the GI50 with BT-549 was 20.2 µM (inactive). `COc1cc(/C=C2/CCCc3ccccc3C2=O)cc(OC)c1OC`: the GI50 in the test with BT-549 is 13.8 µM (inactive); with T47D, 5.92 µM (inactive).

Take `Cc1ccc(S(=O)(=O)N/N=C2\C3CC4CC(C3)C2C4)cc1` (centres undefined): the GI50 in the test on BT-549 and with T47D was > 100 µM (inactive) each time. In the case of `O=C1C(NCCc2cc(Br)c(O)c(Br)c2)=CC(=O)c2ncccc21`, the GI50 in the test on T47D was 13.5 µM (inactive). As to `O=C(Oc1cncc(Cl)c1)c1cc2ccccc2sc1=O`, the GI50 with BT-549 was 57.7 µM (inactive); in the test with T47D, > 100 µM (inactive). With `N#CC(CCN1CCC(Nc2ccccc2)(c2nnnn2C2CCCCC2)CC1)(c1ccccc1)c1ccccc1`, the GI50 in the test with BT-549 is > 100 µM (inactive). Consider `CC(=O)OCC1OC(n2c(C)c(/N=N/c3ccc(C)cc3)c(C)c(C#N)c2=S)C(OC(C)=O)C(OC(C)=O)C1OC(C)=O` (centres undefined), for which the GI50 in the test on BT-549 and with T47D was > 100 µM (inactive) throughout. Take `NS(=O)(=O)c1nnc(NSc2ccc([N+](=O)[O-])cc2)s1`: the GI50 with BT-549 and in the test with T47D was > 100 µM (inactive) in each case.

For `C=C1C2C[C@@H]3O[C@H]4C[C@H]5O[C@@]6(C[C@@H]7O[C@]8(C[C@H](C)[C@@H]9O[C@@H]%10CC(CO)O[C@@H]%10C[C@@H]9O8)C[C@H](C)[C@@H]7O6)C[C@H]5O[C@H]4[C@H](C)[C@H]3OC(=O)C[C@H]3CC[C@@H]4OC5[C@H]6O[C@]7(CC[C@H]8CC(=C)[C@H](CC[C@@H](C[C@H]1C)O2)O8)CC6O[C@@H]5[C@@H](O7)[C@H]4O3` (some centres undefined), the GI50 in the test with BT-549 was < 0.0001 µM (active).

For the molecule `CC12CCC3[C@@H](CC3(C)C)C(O)(CCC1=O)C2` (some centres undefined), in the test on T47D, the GI50 is > 100 µM (inactive). With `CCN(CC)CCC(=O)/C=C/c1ccccc1`, the GI50 with BT-549 was 6.9 µM (inactive). Turning to `CC(C)=CCOc1cc(NC(=S)c2ccsc2C)ccc1Cl`, the GI50 is 23.6 µM (inactive) in the test on BT-549 and 1.64 µM (inactive) in the test on T47D.

With `Nc1nc(N)c2cc(Sc3cccc(C(F)(F)F)c3)ccc2n1` [WR-159412], the GI50 in the test on BT-549 was 6.07 µM (inactive).

The values are drawn from ChEMBL document CHEMBL1201862, “PubChem BioAssay data set” (2004).
